# Data taken from patent US10876089B2, “Apparatus and method for high-fidelity podocyte cultivation” (priority 2016, dated 2020).
# Entries after “also recorded” stand apart in the source; their conditions may differ.
# How the values were obtained:
# Assay type in all cases: cell-based
# podocyte layer = assay: Permeability of cells cultured on transwell microcurvature or flat membrane; conditions: treatment by PAN, 15,000 or 50,000 cells/cm^2
# Text: One of the important physiological consequences from the disruption of the nephrin adhesion protein is the loss of barrier function from the podocyte slit diaphragm, which leads to abnormal protein levels in urine (e.g. albumin, etc.). The disclosed microcurvature membrane system may enable a direct measurement of the permeability of the podocyte layer in a non-invasive manner, in order to probe the barrier function at the podocyte slit diaphragm.
# The permeability of the microcurvature membrane, without cells, may be investigated using dye, fluorescently labeled molecules, or any molecule whose concentration may be quantified in the chamber solution. Some examples include 1-10 μM of 70 kDa TRITC-dextran or 60 kDa FITC-albumin. The molecule of interest may be placed in the upper transwell chamber and collected in the lower chamber over time, or vice-versa. […] FIG. 12F is a plot of example preliminary results showing the permeability of the membrane surface (also referred to as a “topomembrane”) in different configurations, namely without microcurvature (“flat topomembrane”) or with convex microcurvature (“bubble topomembrane”); with cells cultivated on the surface (“+cells”), before cell cultivation (“no cells”) or after cultivated cells are removed (“cells removed”); and compared to the culture well without any membrane (“transwells”). […]
# [1] = tested on: murine nephrin gene (NPHS1) in E11 murine podocytes; assay: PAN stimulation of differentiated podocytes, nephrin gene expression by RT-qPCR; conditions: 17-100 μM PAN for 24 hours (day 8 to 9); microcurvature surface; 15,000 cells/cm^2; (+)ATRA media
# Protocol: On day 9, cells were washed with warm, non-supplemented RPMI 1640 basal media prior to lysing and RNA isolation. A High Pure RNA Isolation Kit (Roche) was used according to manufacturer's instructions, using 50 μL of elution buffer for the final step. Each sample from the study consisted of 3 individual wells pooled together, to ensure that a sufficient amount of RNA was being collected. Thus, 9 wells were seeded for each group to generate n=3 samples per condition. Isolated RNA was converted to complementary DNA (cDNA) using the High Capacity cDNA Reverse Transcription Kit (Applied Biosystems, USA) for ensuing PCR applications. RNA solutions were diluted to a final 7.5 ng/μL in a total reaction volume of 60 μL. Real-time PCR was run on the generated cDNA using the TaqMan Gene Expression Assay (Applied Biosystems). cDNA was diluted to 3.33 ng/μL in a volume of 9 μL, for a total of 30 ng cDNA per reaction. […] Expression of murine nephrin gene (NPHS1, Thermo Fisher Scientific) and the housekeeping gene Beta-2-Microglobulin (B2M, Thermo Fisher Scientific) was determined using relative quantification analysis (28), where C57/bl6 mouse whole kidney cDNA was used as a positive control and as a normalizer in calculations. […]
# E11 murine podocytes = assay: Immunofluorescent staining (F-actin, nephrin, WGA) of differentiated podocytes; conditions: 100 μM PAN vs without PAN; microcurvature surface
# Protocol: For immunofluorescent staining, cells were first washed with Dulbecco's phosphate buffered saline (DPBS, Life Technologies) and then fixed in 4% paraformaldehyde solution for 15 min at room temperature, followed by another wash with DPBS. For F-actin staining, the cells were permeated and blocked in 10% (v/v) FBS and 0.25% Triton X100 in DPBS for 1 hour. Next, the cells were incubated with Alexa Fluor® 660 phalloidin (Thermo Fisher Scientific) for 1 hour. For Nephrin and Wheat Germ Agglutinin (WGA) staining, the cells were blocked in 10% normal goat serum for 1 hour. Next, the cells were incubated in primary anti-Nephrin antibody (Thermo Fisher Scientific) overnight at 4° C. followed by incubation with FITC goat anti-rabbit IgG (1:200 dilutions, Abcam, UK) for 1 hour at room temperature. Lastly, the cells were incubated with Rhodamine-WGA (1:1000 dilution, Vector Laboratories, USA) for 10 min at room temperature.
# The additional influence of the microcurvature topography is shown by the change from compacted, spindle-like cells to arborized morphologies. This was especially evident in the vehicle-only group.
# From immunostaining results, it appeared that cell membrane area and nephrin expression decreased, indicating a possible reduction in cell spreading as a result of the PAN insult. However, the localization of nephrin still consistently appeared on top of the bubbles. […]
smiles,measurement,setting,value
"CN(C)c1ncnc2c1ncn2[C@@H]1O[C@H](CO)[C@@H](N)[C@H]1O [PAN, Puromycin amino nucleoside]",permeability of cells in response to chemical insult,podocyte layer,increasing permeability
same,nephrin gene expression compared to the PAN-free control,[1],moderate downregulation; also recorded: dose-response downregulated behaviour
same,cell membrane area (immunostaining),E11 murine podocytes,decreased
same,nephrin expression (immunostaining),E11 murine podocytes,decreased
